test system: H460; assay: Cellular H460 viability assay (CellTiter-Glo, 72 hours); assay type: cell-based; conditions: Homo sapiens, NCI-H460
Experimental: (§1) All cell lines were routinely tested for mycoplasma.
(§2) The effect of the CDK7 inhibitor to inhibit the growth of target cancer cells was evaluated through the 72 hours time period of viability assay. Briefly, the candidate cell line ware plated in 96 well plate at the following density of cells respectively. […] DMSO solvent without compound served as a control and final DMSO concentration less than 0.1%. After 72 hours of incubation at 37° C., 5% CO2 incubator, cells were analyzed for the viability using the CellTiter-Glo Luminescent Cell Viability Assay (Promega, Cat #G7570). All viability assays were performed in duplicate and Luminescence was read using an Envision (Perkin Elmer, USA). Data was analyzed using XLfit software.

IC50 | SMILES
< 1 µM | CNC(=O)c1cccc(-c2cnn(-c3ccccc3CNc3nc(N4CCC(N)CC4)nc4c(C(C)C)cnn34)c2)c1 [Compound 151]
< 1 µM | CC(C)c1cnn2c(NCc3ccccc3-n3cc(C(=O)Nc4ccccc4)cn3)nc(N3CCC(N)CC3)nc12 [Compound 152]
< 1 µM | CC(C)c1cnn2c(NCc3ccccc3-n3cc(C(=O)NC4CCOCC4)cn3)nc(N3CCC(N)CC3)nc12 [Compound 155]
< 1 µM | CC(C)c1cnn2c(NCc3ccccc3-n3cc(N4CCOCC4)cn3)nc(N3CCC(N)CC3)nc12 [Compound 156]

test system: MV4-11; assay: Cellular MV4-11 viability assay (CellTiter-Glo, 72 hours); assay type: cell-based; conditions: Homo sapiens
Experimental: as §1, §2

IC50 | SMILES
< 1 µM | CNC(=O)c1cccc(-c2cnn(-c3ccccc3CNc3nc(N4CCC(N)CC4)nc4c(C(C)C)cnn34)c2)c1 [Compound 151]
< 1 µM | CC(C)c1cnn2c(NCc3ccccc3-n3cc(C(=O)Nc4ccccc4)cn3)nc(N3CCC(N)CC3)nc12 [Compound 152]
< 1 µM | CC(C)c1cnn2c(NCc3ccccc3-n3cc(C(=O)NC4CCOCC4)cn3)nc(N3CCC(N)CC3)nc12 [Compound 155]
< 1 µM | CC(C)c1cnn2c(NCc3ccccc3-n3cc(N4CCOCC4)cn3)nc(N3CCC(N)CC3)nc12 [Compound 156]

molecular target: T1, CDK5/p25 (Homo sapiens, UniProt Q00535); assay: Enzymatic assay for CDK5 (FRET based LANCE Ultra kinase assay); assay type: biochemical; conditions: read-out: CDK5 enzymatic activity (IC50 range)
T1 construct: purchased Invitrogen PR8543B
Experimental: (§3) Enzymatic Binding Assay Protocol for CDK1, CDK2, CDK5 and CDK7
(§4) Inhibition activity of the respective compound on CDK kinase under Km value of ATP was tested in FRET based The LANCE® Ultra kinase assay (Perkin Elmer), which uses a ULight™-labeled peptide substrate and an appropriate Europium-labeled anti-phospho-antibody. Test compounds were made with DMSO solutions, and then 4-fold serial dilutions for 8 doses were prepared using automated liquid handler (POD810, LABCYTE) and 80 nL/well of diluted compound solutions were added into the 384-well plates (Greiner, Cat #784075). And then 68 nM of ULight-MBP peptide (Perkin Elmer, Cat #TRF0109-M) and 5 ul/well of ATP (Sigma, Cat #A7699) were added to the plate. After 1 min centrifugation at 1000 rpm, Purified CDKs/Cyclin complex were added following concentrations respectively. 24 uM for CDK1/Cyclin B (Invitrogen, Cat #PR4768C), 22 uM for CDK2/Cyclin A (Invitrogen, Cat #PV6290), 10 uM for CDK5/p25 (Invitrogen, Cat #PR8543B) and […] for CDK7/Cyclin H/MNAT1 (Invitrogen, Cat #PR6749B) were added to the each corresponding plate for CDK1, CDK2, CDK5 and CDK7. Incubate at 23° C. for 60 min and then Eu-labeled anti-phospho-Myelin Basic Protein (PE, Cat #TRF0201-M) and EDTA (Invitrogen, Cat #15575038) mixture in Lance Detection Buffer (Perkin Elmer, Cat #CR97100) was added in each well. After additional incubation at 23° C. for 60 min, test articles were measured the fluorescence using Envision leader (Perkin Elmer, USA) [Laser as excitation light; […] as the first and the second emission filter]. Data was analyzed using XL Fit software.

T1 sequence (Q00535 whole entry): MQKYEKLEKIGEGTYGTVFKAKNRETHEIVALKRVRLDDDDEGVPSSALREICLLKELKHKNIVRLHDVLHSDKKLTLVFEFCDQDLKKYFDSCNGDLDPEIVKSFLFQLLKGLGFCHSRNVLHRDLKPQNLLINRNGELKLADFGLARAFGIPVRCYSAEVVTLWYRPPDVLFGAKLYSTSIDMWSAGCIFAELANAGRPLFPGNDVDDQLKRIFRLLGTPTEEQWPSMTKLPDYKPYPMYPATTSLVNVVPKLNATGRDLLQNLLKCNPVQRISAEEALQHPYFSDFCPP
T1 sequence (Q15078 99-307 partner limits assumed): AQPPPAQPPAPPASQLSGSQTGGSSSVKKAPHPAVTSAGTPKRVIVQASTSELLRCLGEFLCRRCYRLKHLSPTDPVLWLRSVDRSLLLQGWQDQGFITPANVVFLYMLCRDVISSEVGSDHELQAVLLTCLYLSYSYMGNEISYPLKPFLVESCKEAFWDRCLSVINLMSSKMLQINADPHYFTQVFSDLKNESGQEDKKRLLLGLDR

IC50 | SMILES
0.1 to 1 µM | CNC(=O)c1cccc(-c2cnn(-c3ccccc3CNc3nc(N4CCC(N)CC4)nc4c(C(C)C)cnn34)c2)c1 [Compound 151]
< 0.1 µM | CC(C)c1cnn2c(NCc3ccccc3-n3cc(C(=O)Nc4ccccc4)cn3)nc(N3CCC(N)CC3)nc12 [Compound 152]
< 0.1 µM | CC(C)c1cnn2c(NCc3ccccc3-n3cc(C(=O)NC4CCOCC4)cn3)nc(N3CCC(N)CC3)nc12 [Compound 155]
0.1 to 1 µM | CC(C)c1cnn2c(NCc3ccccc3-n3cc(N4CCOCC4)cn3)nc(N3CCC(N)CC3)nc12 [Compound 156]

molecular target: T2, CDK1/Cyclin B (Homo sapiens, UniProt P06493); assay: Enzymatic assay for CDK1 (FRET based LANCE Ultra kinase assay); assay type: biochemical; conditions: read-out: CDK1 enzymatic activity (IC50 range)
T2 construct: purchased Invitrogen PR4768C
Experimental: as §3, §4

T2 sequence (P06493 whole entry): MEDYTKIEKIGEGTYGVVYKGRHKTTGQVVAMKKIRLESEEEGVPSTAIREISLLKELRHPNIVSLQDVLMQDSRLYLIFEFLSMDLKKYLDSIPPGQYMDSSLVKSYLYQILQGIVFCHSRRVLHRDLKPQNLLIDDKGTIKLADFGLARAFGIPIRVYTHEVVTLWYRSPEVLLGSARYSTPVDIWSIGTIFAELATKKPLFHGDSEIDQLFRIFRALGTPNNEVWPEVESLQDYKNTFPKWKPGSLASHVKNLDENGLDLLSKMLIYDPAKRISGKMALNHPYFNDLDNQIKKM
T2 sequence (P14635 whole entry partner): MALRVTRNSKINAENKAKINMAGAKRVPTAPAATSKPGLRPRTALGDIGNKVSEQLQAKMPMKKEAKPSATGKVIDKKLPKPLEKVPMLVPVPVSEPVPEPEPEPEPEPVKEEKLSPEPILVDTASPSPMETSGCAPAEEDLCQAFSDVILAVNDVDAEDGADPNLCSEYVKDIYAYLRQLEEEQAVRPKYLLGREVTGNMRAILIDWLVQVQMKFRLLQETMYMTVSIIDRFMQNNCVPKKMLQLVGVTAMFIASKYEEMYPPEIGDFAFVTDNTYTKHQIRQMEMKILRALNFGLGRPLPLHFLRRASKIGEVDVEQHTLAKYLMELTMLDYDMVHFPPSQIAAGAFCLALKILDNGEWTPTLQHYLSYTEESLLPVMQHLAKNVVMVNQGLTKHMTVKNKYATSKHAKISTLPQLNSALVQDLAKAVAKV

IC50 | SMILES
0.1 to 1 µM | CNC(=O)c1cccc(-c2cnn(-c3ccccc3CNc3nc(N4CCC(N)CC4)nc4c(C(C)C)cnn34)c2)c1 [Compound 151]
> 1 µM | CC(C)c1cnn2c(NCc3ccccc3-n3cc(C(=O)Nc4ccccc4)cn3)nc(N3CCC(N)CC3)nc12 [Compound 152]
0.1 to 1 µM | CC(C)c1cnn2c(NCc3ccccc3-n3cc(C(=O)NC4CCOCC4)cn3)nc(N3CCC(N)CC3)nc12 [Compound 155]
> 1 µM | CC(C)c1cnn2c(NCc3ccccc3-n3cc(N4CCOCC4)cn3)nc(N3CCC(N)CC3)nc12 [Compound 156]

test system: HCT116; assay: Cellular HCT116 viability assay (CellTiter-Glo, 72 hours); assay type: cell-based; conditions: Homo sapiens, HCT-116
Experimental: as §1, §2

IC50 | SMILES
< 1 µM | CNC(=O)c1cccc(-c2cnn(-c3ccccc3CNc3nc(N4CCC(N)CC4)nc4c(C(C)C)cnn34)c2)c1 [Compound 151]
< 1 µM | CC(C)c1cnn2c(NCc3ccccc3-n3cc(C(=O)Nc4ccccc4)cn3)nc(N3CCC(N)CC3)nc12 [Compound 152]
< 1 µM | CC(C)c1cnn2c(NCc3ccccc3-n3cc(C(=O)NC4CCOCC4)cn3)nc(N3CCC(N)CC3)nc12 [Compound 155]
< 1 µM | CC(C)c1cnn2c(NCc3ccccc3-n3cc(N4CCOCC4)cn3)nc(N3CCC(N)CC3)nc12 [Compound 156]

molecular target: T3, CDK2/Cyclin A (Homo sapiens, UniProt P24941); assay: Enzymatic assay for CDK2 (FRET based LANCE Ultra kinase assay); assay type: biochemical; conditions: read-out: CDK2 enzymatic activity (IC50 range)
T3 construct: purchased Invitrogen PV6290
Experimental: as §3, §4

IC50 | SMILES
0.1 to 1 µM | CNC(=O)c1cccc(-c2cnn(-c3ccccc3CNc3nc(N4CCC(N)CC4)nc4c(C(C)C)cnn34)c2)c1 [Compound 151]
0.1 to 1 µM | CC(C)c1cnn2c(NCc3ccccc3-n3cc(C(=O)Nc4ccccc4)cn3)nc(N3CCC(N)CC3)nc12 [Compound 152]
0.1 to 1 µM | CC(C)c1cnn2c(NCc3ccccc3-n3cc(C(=O)NC4CCOCC4)cn3)nc(N3CCC(N)CC3)nc12 [Compound 155]
0.1 to 1 µM | CC(C)c1cnn2c(NCc3ccccc3-n3cc(N4CCOCC4)cn3)nc(N3CCC(N)CC3)nc12 [Compound 156]

molecular target: T4, CDK7/Cyclin H/MNAT1 (Homo sapiens, UniProt P50613); assay: Enzymatic assay for CDK7 (FRET based LANCE Ultra kinase assay); assay type: biochemical; conditions: CDK7 over CDK1
T4 construct: purchased Invitrogen PR6749B
Experimental: as §3
Inhibition activity of the respective compound on CDK kinase under Km value of ATP was tested in FRET based The LANCE® Ultra kinase assay (Perkin Elmer), which uses a ULight™-labeled peptide substrate and an appropriate Europium-labeled anti-phospho-antibody. […] After 1 min centrifugation at 1000 rpm, Purified CDKs/Cyclin complex were added following concentrations respectively. […] Data was analyzed using XL Fit software.

T4 sequence (P50613 whole entry): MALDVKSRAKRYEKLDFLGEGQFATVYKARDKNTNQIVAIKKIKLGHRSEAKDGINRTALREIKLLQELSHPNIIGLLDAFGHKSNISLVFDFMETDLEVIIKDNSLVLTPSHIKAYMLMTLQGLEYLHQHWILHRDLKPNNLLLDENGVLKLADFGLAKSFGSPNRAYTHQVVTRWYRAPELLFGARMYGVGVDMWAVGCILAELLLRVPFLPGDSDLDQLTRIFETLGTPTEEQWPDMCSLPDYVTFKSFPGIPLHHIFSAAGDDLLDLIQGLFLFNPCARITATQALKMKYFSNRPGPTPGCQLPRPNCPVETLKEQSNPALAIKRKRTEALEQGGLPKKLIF
T4 sequence (P51946 whole entry partner): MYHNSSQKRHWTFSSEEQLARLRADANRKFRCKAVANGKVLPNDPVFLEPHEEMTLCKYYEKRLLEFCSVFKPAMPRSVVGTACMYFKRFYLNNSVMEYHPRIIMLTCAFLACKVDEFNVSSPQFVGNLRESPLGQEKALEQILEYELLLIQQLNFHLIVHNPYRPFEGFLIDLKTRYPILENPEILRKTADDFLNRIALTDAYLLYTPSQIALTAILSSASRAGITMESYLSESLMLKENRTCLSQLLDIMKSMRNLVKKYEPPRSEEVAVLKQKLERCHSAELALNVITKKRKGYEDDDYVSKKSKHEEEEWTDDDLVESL
T4 sequence (P51948 whole entry partner): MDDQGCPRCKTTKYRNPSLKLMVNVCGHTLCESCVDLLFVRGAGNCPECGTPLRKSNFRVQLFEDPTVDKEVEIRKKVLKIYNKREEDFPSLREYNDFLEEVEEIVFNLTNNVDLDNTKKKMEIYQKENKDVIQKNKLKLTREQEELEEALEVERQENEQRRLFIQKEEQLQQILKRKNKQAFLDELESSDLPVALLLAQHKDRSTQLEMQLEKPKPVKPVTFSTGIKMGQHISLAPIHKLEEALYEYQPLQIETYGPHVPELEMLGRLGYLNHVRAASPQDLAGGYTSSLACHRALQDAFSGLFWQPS

CDK1/CDK7: Selectivity of CDK7 inhibition over CDK1 inhibition | SMILES
A (A=greater than 200 fold) | CNC(=O)c1cccc(-c2cnn(-c3ccccc3CNc3nc(N4CCC(N)CC4)nc4c(C(C)C)cnn34)c2)c1 [Compound 151]
A (A=greater than 200 fold) | CC(C)c1cnn2c(NCc3ccccc3-n3cc(C(=O)Nc4ccccc4)cn3)nc(N3CCC(N)CC3)nc12 [Compound 152]
A (A=greater than 200 fold) | CC(C)c1cnn2c(NCc3ccccc3-n3cc(C(=O)NC4CCOCC4)cn3)nc(N3CCC(N)CC3)nc12 [Compound 155]
A (A=greater than 200 fold) | CC(C)c1cnn2c(NCc3ccccc3-n3cc(N4CCOCC4)cn3)nc(N3CCC(N)CC3)nc12 [Compound 156]

same assay, conditions: CDK7 over CDK2

SMILES | CDK2/CDK7: Selectivity of CDK7 inhibition over CDK2 inhibition
CNC(=O)c1cccc(-c2cnn(-c3ccccc3CNc3nc(N4CCC(N)CC4)nc4c(C(C)C)cnn34)c2)c1 [Compound 151] | B (B=less than 200 fold, but greater than 20 fold)
CC(C)c1cnn2c(NCc3ccccc3-n3cc(C(=O)Nc4ccccc4)cn3)nc(N3CCC(N)CC3)nc12 [Compound 152] | B (B=less than 200 fold, but greater than 20 fold)
CC(C)c1cnn2c(NCc3ccccc3-n3cc(C(=O)NC4CCOCC4)cn3)nc(N3CCC(N)CC3)nc12 [Compound 155] | B (B=less than 200 fold, but greater than 20 fold)
CC(C)c1cnn2c(NCc3ccccc3-n3cc(N4CCOCC4)cn3)nc(N3CCC(N)CC3)nc12 [Compound 156] | B (B=less than 200 fold, but greater than 20 fold)

same assay, conditions: CDK7 over CDK5

SMILES | CDK5/CDK7: Selectivity of CDK7 inhibition over CDK5 inhibition
CNC(=O)c1cccc(-c2cnn(-c3ccccc3CNc3nc(N4CCC(N)CC4)nc4c(C(C)C)cnn34)c2)c1 [Compound 151] | B (B=less than 200 fold, but greater than 20 fold)
CC(C)c1cnn2c(NCc3ccccc3-n3cc(C(=O)Nc4ccccc4)cn3)nc(N3CCC(N)CC3)nc12 [Compound 152] | B (B=less than 200 fold, but greater than 20 fold)
CC(C)c1cnn2c(NCc3ccccc3-n3cc(C(=O)NC4CCOCC4)cn3)nc(N3CCC(N)CC3)nc12 [Compound 155] | B (B=less than 200 fold, but greater than 20 fold)
CC(C)c1cnn2c(NCc3ccccc3-n3cc(N4CCOCC4)cn3)nc(N3CCC(N)CC3)nc12 [Compound 156] | B (B=less than 200 fold, but greater than 20 fold)

same assay, conditions: read-out: CDK7 enzymatic activity (IC50 range)

IC50 | SMILES
< 0.1 µM | CNC(=O)c1cccc(-c2cnn(-c3ccccc3CNc3nc(N4CCC(N)CC4)nc4c(C(C)C)cnn34)c2)c1 [Compound 151]
< 0.1 µM | CC(C)c1cnn2c(NCc3ccccc3-n3cc(C(=O)Nc4ccccc4)cn3)nc(N3CCC(N)CC3)nc12 [Compound 152]
< 0.1 µM | CC(C)c1cnn2c(NCc3ccccc3-n3cc(C(=O)NC4CCOCC4)cn3)nc(N3CCC(N)CC3)nc12 [Compound 155]
< 0.1 µM | CC(C)c1cnn2c(NCc3ccccc3-n3cc(N4CCOCC4)cn3)nc(N3CCC(N)CC3)nc12 [Compound 156]

From patent US11945822B2, “Pyrazolo-triazine and/or pyrazolo-pxrimidine derivatives as selective inhibitor of cyclin dependent kinase” (QURIENT CO., LTD., priority 2018, dated 2024)
